Data on 22 compounds can be found in patent publication US10125134B2 (Mirati Therapeutics, Inc., priority 2016, dated 2018).

Structures can show the parent of a compound that is named as a salt. Where two headings read alike, the source gives them in different places.

Assay [1] deals with NCI-H358 cells (express KRas G12C), Phospho-ERK. The experiment in a line: Cellular inhibition of KRas G12C: Phospho-ERK in NCI-H358 cells. The conditions noted are these: Homo sapiens, pERK(Thr202/Tyr204) normalized with GAPDH, NCI-H358 cells, 3 hours, read-out: IC50. In kind it is cell-based. In short, it runs like this: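 IC50 derived by 4-parameter fit of GAPDH-normalized pERK(Thr202/Tyr204) signal, as percent of DMSO control. Signal came from in-cell immunodetection with infrared secondaries after 3 h compound exposure of KRas G12C NCI-H358 cells at 0.5% DMSO.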

The target in another assay is KRas G12C (Homo sapiens, UniProt P01116, C118S/C51S/C80L/G12C). The assay can be described thus: KRas G12C Modification Assay (LCMS detection of covalent adduct). The assay is classed as binding. The conditions noted are these: normalized percent of control; tested at 5 μM concentration for 3 hours. In short, it runs like this: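 Cys-light KRas G12C mutant protein incubated with compound in K-Ras assay buffer, reactions quenched at set time points with 25 mM acetic acid and analysed by intact-protein LC/MS on a C-3 column. Deconvoluted mass heights expressed as percent of control (POC) relative to compound-free protein.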

As a reminder, the IC50 is the concentration that inhibits the measured activity by half. As to `C=CC(=O)N1CCN(c2nc(OCCN3CCN(C(C)=O)CC3)nc3c2CCN(c2cc(O)cc4ccccc24)C3)CC1` [Example 37, 1-(4-(2-(2-(4-acetylpiperazin-1-yl)ethoxy)-7-(3-hydroxynaphthalen-1-yl)-5,6,7,8-tetrahydropyrido[3,4-d]pyrimidin-4-yl)piperazin-1-yl)prop-2-en-1-one], in assay [1] (NCI-H358, 3 h), the IC50 was above 1000 nM. The POC result at KRas G12C was “C (“C”>50% POC)”.
Regarding `C=CC(=O)N1CCN(c2nc(OCCCN3CCCCC3)nc3c2CCN(c2cc(O)cc4ccccc24)C3)CC1` [Example 38, 1-(4-(7-(3-hydroxynaphthalen-1-yl)-2-(3-(piperidin-1-yl)propoxy)-5,6,7,8-tetrahydropyrido[3,4-d]pyrimidin-4-yl)piperazin-1-yl)prop-2-en-1-one], the IC50 in assay [1] (NCI-H358, 3 h) was 0.1 to 1000 nM. Besides, the POC result at KRas G12C is listed as “C (“C”>50% POC)”.
Regarding `C=CC(=O)N1CCN(c2nc(OCCCN3CCCC3)nc3c2CCN(c2cc(O)cc4ccccc24)C3)CC1` [Example 39, 1-(4-(7-(3-hydroxynaphthalen-1-yl)-2-(3-(pyrrolidin-1-yl)propoxy)-5,6,7,8-tetrahydropyrido[3,4-d]pyrimidin-4-yl)piperazin-1-yl)prop-2-en-1-one], the IC50 in assay [1] (NCI-H358, 3 h) was in the range of 0.1 to 1000 nM. Further, the POC entry on KRas G12C is recorded as “C (“C”>50% POC)”.
Turning to `C=CC(=O)N1CCN(c2nc(OCCCCN(C)C)nc3c2CCN(c2cc(O)cc4ccccc24)C3)CC1` [Example 40, 1-(4-(2-(4-(dimethylamino)butoxy)-7-(3-hydroxynaphthalen-1-yl)-5,6,7,8-tetrahydropyrido[3,4-d]pyrimidin-4-yl)piperazin-1-yl)prop-2-en-1-one], the IC50 in assay [1] (NCI-H358, 3 h) lay within 0.1 to 1000 nM. Also, the POC result on KRas G12C was “C (“C”>50% POC)”.
As for `C=CC(=O)N1CCN(c2nc(OCCCN3CCOCC3)nc3c2CCN(c2cc(O)cc(C4CC4)c2)C3)CC1` [Example 41, 1-(4-(7-(3-cyclopropyl-5-hydroxyphenyl)-2-(3-morpholinopropoxy)-5,6,7,8-tetrahydropyrido[3,4-d]pyrimidin-4-yl)piperazin-1-yl)prop-2-en-1-one trifluoroacetate], the IC50 in assay [1] is above 1000 nM. The POC result at KRas G12C was “A (“A”≤25% POC)”.
With `C=CC(=O)N1CCN(c2nc(OCCCN3CCOCC3)nc3c2CCN(c2cc(O)ccc2F)C3)CC1` [Example 42, 1-(4-(7-(2-fluoro-5-hydroxyphenyl)-2-(3-morpholinopropoxy)-5,6,7,8-tetrahydropyrido[3,4-d]pyrimidin-4-yl)piperazin-1-yl)prop-2-en-1-one], the IC50 in assay [1] was above 1000 nM. For the same compound, at KRas G12C, the POC entry is given as “A (“A”≤25% POC)”.
In the same order, the values of `C=CC(=O)N1CCN(c2nc(OCCCN3CCOCC3)nc3c2CCN(c2cc(O)cc4cc(C)ccc24)C3)CC1` [Example 43, 1-(4-(7-(3-hydroxy-6-methylnaphthalen-1-yl)-2-(3-morpholinopropoxy)-5,6,7,8-tetrahydropyrido[3,4-d]pyrimidin-4-yl)piperazin-1-yl)prop-2-en-1-one] are above 1000 nM and “C (“C”>50% POC)”.
For the compound `C=CC(=O)N1CCN(c2nc(OCCCN3CCOCC3)nc3c2CCN(c2c(C)ccc4[nH]ncc24)C3)CC1` [Example 44, 1-(4-(7-(5-methyl-1H-indazol-4-yl)-2-(3-morpholinopropoxy)-5,6,7,8-tetrahydropyrido[3,4-d]pyrimidin-4-yl)piperazin-1-yl)prop-2-en-1-one], in assay [1], the IC50 is above 1000 nM. In addition, the POC entry at KRas G12C is listed as “C (“C”>50% POC)”.
With `C=CC(=O)N1[C@@H]2CC[C@H]1CN(c1nc(OC(C)CN(C)C)nc3c1CCN(c1cc(O)cc4ccccc14)C3)C2` (stereo partly drawn) [Example 45, 1-((1R,5S)-3-(2-((1-(dimethylamino)propan-2-yl)oxy)-7-(3-hydroxynaphthalen-1-yl)-5,6,7,8-tetrahydropyrido[3,4-d]pyrimidin-4-yl)-3,8-diazabicyclo[3.2.1]octan-8-yl)prop-2-en-1-one], in assay [1], the IC50 is above 1000 nM. In addition, the POC result at KRas G12C is given as “A (“A”≤25% POC)”.
On to `C=CC(=O)N1C[C@H]2CC[C@@H](C1)N2c1nc(OC(C)CN(C)C)nc2c1CCN(c1cc(O)cc3ccccc13)C2` (stereo partly drawn) [Example 46, 1-((1R,5S)-8-(2-((1-(dimethylamino)propan-2-yl)oxy)-7-(3-hydroxynaphthalen-1-yl)-5,6,7,8-tetrahydropyrido[3,4-d]pyrimidin-4-yl)-3,8-diazabicyclo[3.2.1]octan-3-yl)prop-2-en-1-one], for which the IC50 in assay [1] was above 1000 nM. Moreover, the POC entry on KRas G12C is given as “A (“A”≤25% POC)”.
As to `C=CC(=O)N1CCN(c2nc(OCCN(C)C)nc3c2CCN(c2cc(O)cc4ccccc24)C3C)CC1` (centres unmarked) [Example 47, 1-(4-(2-(2-(dimethylamino)ethoxy)-7-(3-hydroxynaphthalen-1-yl)-8-methyl-5,6,7,8-tetrahydropyrido[3,4-d]pyrimidin-4-yl)piperazin-1-yl)prop-2-en-1-one], the IC50 in assay [1] is above 1000 nM. For the same compound, the POC result on KRas G12C was “C (“C”>50% POC)”.
In the case of `C=CC(=O)N1CCN(c2nc(OCCN(C)C)nc3c2CC(C)N(c2cc(O)cc4ccccc24)C3)CC1` (centres unmarked) [Example 48, 1-(4-(2-(2-(dimethylamino)ethoxy)-7-(3-hydroxynaphthalen-1-yl)-6-methyl-5,6,7,8-tetrahydropyrido[3,4-d]pyrimidin-4-yl)piperazin-1-yl)prop-2-en-1-one trifluoroacetate], the IC50 in assay [1] was above 1000 nM. Moreover, on KRas G12C, the POC entry is given as “C (“C”>50% POC)”.
With `C=CC(=O)N1CCN(c2nc(OCCN3CCC(F)C3)nc3c2CCN(c2cc(O)cc4ccccc24)C3)CC1` (centres unmarked) [Example 49, 1-(4-(2-(2-(3-fluoropyrrolidin-1-yl)ethoxy)-7-(3-hydroxynaphthalen-1-yl)-5,6,7,8-tetrahydropyrido[3,4-d]pyrimidin-4-yl)piperazin-1-yl)prop-2-en-1-one], the IC50 in assay [1] (NCI-H358, 3 h) is above 1000 nM. Further, at KRas G12C, the POC entry is listed as “B (“B”>25% POC−≤50% POC)”.
Taken in the same sequence, the figures for `C=CC(=O)N1CCN(c2nc(OCCN(C)C)nc3c2CCN(c2cc(O)cc4ccccc24)C3)CC1CO` (centres unmarked) [Example 50, 1-(4-(2-(2-(dimethylamino)ethoxy)-7-(3-hydroxynaphthalen-1-yl)-5,6,7,8-tetrahydropyrido[3,4-d]pyrimidin-4-yl)-2-(hydroxymethyl)piperazin-1-yl)prop-2-en-1-one] were above 1000 nM and “C (“C”>50% POC)”.
With `C=CC(=O)N1CCN(c2nc(OCCN(C)C)nc3c2CCN(c2cc(O)cc4ccccc24)C3)CC1C(=O)N(C)C` (centres unmarked) [Example 51, 1-acryloyl-4-(2-(2-(dimethylamino)ethoxy)-7-(3-hydroxynaphthalen-1-yl)-5,6,7,8-tetrahydropyrido[3,4-d]pyrimidin-4-yl)-N,N-dimethylpiperazine-2-carboxamide], the IC50 in assay [1] is above 1000 nM. Moreover, the POC entry at KRas G12C is “A (“A”≤25% POC)”.
`C=CC(=O)N1CCN(c2nc(OCCN3CCCCC3)nc3c2CCN(c2cc(O)cc4ccccc24)C3)CC1` [Example 52, 1-[4-[7-(3-hydroxy-1-naphthyl)-2-[2-(1-piperidyl)ethoxy]-6,8-dihydro-5H-pyrido[3,4-d]pyrimidin-4-yl]piperazin-1-yl]prop-2-en-1-one]: the IC50 in assay [1] (NCI-H358, 3 h) fell in the range of 0.1 to 1000 nM. For the same compound, the POC entry at KRas G12C is listed as “C (“C”>50% POC)”.
Consider `C=CC(=O)N1CCN(c2nc(OCCN(C)C)nc3c2CCN(c2cc(O)cc4ccccc24)C3)C(CO)C1` (centres unmarked) [Example 53, 1-(4-(2-(2-(dimethylamino)ethoxy)-7-(3-hydroxynaphthalen-1-yl)-5,6,7,8-tetrahydropyrido[3,4-d]pyrimidin-4-yl)-3-(hydroxymethyl)piperazin-1-yl)prop-2-en-1-one], for which, in assay [1] (NCI-H358, 3 h), the IC50 is above 1000 nM. Also, the POC entry on KRas G12C is on record as “C (“C”>50% POC)”.
For `C=CC(=O)N1CCN(c2ncnc3c2CCN(c2nc(N)cc4ccccc24)C3)CC1` [Example 54, 1-[4-[7-(3-amino-1-isoquinolyl)-6,8-dihydro-5H-pyrido[3,4-d]pyrimidin-4-yl]piperazin-1-yl]prop-2-en-1-one], in assay [1], the IC50 is above 1000 nM. For the same compound, the POC entry at KRas G12C is “A (“A”≤25% POC)”.
Turning to `C=CC(=O)N1CCN(c2nc(OCC(CO)N(C)C)nc3c2CCN(c2cc(O)cc4ccccc24)C3)CC1` (centres unmarked) [Example 55, 1-(4-(2-(2-(dimethylamino)-3-hydroxypropoxy)-7-(3-hydroxynaphthalen-1-yl)-5,6,7,8-tetrahydropyrido[3,4-d]pyrimidin-4-yl)piperazin-1-yl)prop-2-en-1-one], the IC50 in assay [1] (NCI-H358, 3 h) fell in the range of 0.1 to 1000 nM. For the same compound, the POC entry at KRas G12C is listed as “C (“C”>50% POC)”.
Take `C=CC(=O)N1CCN(c2nc(O[C@H](C)CN3CCOCC3)nc3c2CCN(c2cc(O)cc4ccccc24)C3)CC1` [Example 56, (R)-1-(4-(7-(3-hydroxynaphthalen-1-yl)-2-((1-morpholinopropan-2-yl)oxy)-5,6,7,8-tetrahydropyrido[3,4-d]pyrimidin-4-yl)piperazin-1-yl)prop-2-en-1-one]: the IC50 in assay [1] (NCI-H358, 3 h) lay in the range of 0.1 to 1000 nM. The POC entry at KRas G12C is “C (“C”>50% POC)”.
As to `C=CC(=O)N1CCN(c2nc(OC[C@@H]3CCC(=O)N3)nc3c2CCN(c2cc(O)cc4ccccc24)C3)CC1` [Example 57, (S)-5-(((4-(4-acryloylpiperazin-1-yl)-7-(3-hydroxynaphthalen-1-yl)-5,6,7,8-tetrahydropyrido[3,4-d]pyrimidin-2-yl)oxy)methyl)pyrrolidin-2-one], the IC50 in assay [1] (NCI-H358, 3 h) is above 1000 nM. In addition, the POC result on KRas G12C is “C (“C”>50% POC)”.
Consider `C=CC(=O)N1CCN(c2nc(OC[C@H]3CCC(=O)N3)nc3c2CCN(c2cc(O)cc4ccccc24)C3)CC1` [Example 58, (R)-5-(((4-(4-acryloylpiperazin-1-yl)-7-(3-hydroxynaphthalen-1-yl)-5,6,7,8-tetrahydropyrido[3,4-d]pyrimidin-2-yl)oxy)methyl)pyrrolidin-2-one], for which the IC50 in assay [1] (NCI-H358, 3 h) is above 1000 nM. Further, on KRas G12C, the POC entry is “C (“C”>50% POC)”.
